# Source: patent publication US20240383886A1, “Protein Tyrosine Phosphatase Degraders and Methods of Use Thereof” (CALICO LIFE SCIENCES LLC, priority 2019, published 2024)
# Experiments:
# PTPN2 [1] = target: T1, PTPN2 (Homo sapiens, UniProt P17706); assay: HiBiT-Degradation 293T.109 PTPN2 (Nano-Glo HiBiT Lytic Assay); format: cell-based; conditions: 293T.109 (HiBiT-PTPN2) cells, 24.0 hours
# T1 construct: expressed in transfected cells; host or cells: 293T (293T.109 HiBiT-PTPN2 line; parental 293T WT from ATCC)
# T1 sequence (P17706 1-415): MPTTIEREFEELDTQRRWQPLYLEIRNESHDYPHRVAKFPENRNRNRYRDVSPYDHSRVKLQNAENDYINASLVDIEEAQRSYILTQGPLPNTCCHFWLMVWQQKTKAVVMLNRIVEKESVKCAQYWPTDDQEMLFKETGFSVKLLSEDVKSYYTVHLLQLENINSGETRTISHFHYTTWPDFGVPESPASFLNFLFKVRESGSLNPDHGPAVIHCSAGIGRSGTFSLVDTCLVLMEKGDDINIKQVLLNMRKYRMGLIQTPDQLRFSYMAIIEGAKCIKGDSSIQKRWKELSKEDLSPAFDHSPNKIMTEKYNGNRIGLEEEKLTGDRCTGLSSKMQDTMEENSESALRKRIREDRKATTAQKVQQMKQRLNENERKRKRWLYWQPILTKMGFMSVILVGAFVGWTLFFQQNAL
# How it was run: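 293T cells ectopically expressing N-terminally HiBiT-tagged PTPN2 were seeded at 5000 cells/well. They were treated with an 11-point half-log titration from 10 μM, in duplicate, for 24 hours at 37° C., 5% CO2. Remaining tagged PTPN2 was quantified by lytic HiBiT luminescence against untreated and no-reagent controls.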
# PTPN2 [2] = assay: HiBiT-Degradation B16F10.4 PTPN2; format: cell-based; conditions: B16F10.4 cells, 24.0 hours
SMILES,DC50 (PTPN2 [1]) [nM],DC50 (PTPN2 [2]) [nM]
"Cn1c(=O)n(C2CCC(=O)NC2=O)c2ccc(-c3ccc(CC(=O)Nc4ccc5c(F)c(N6CC(=O)NS6(=O)=O)c(O)cc5c4)cc3)cc21 (stereo not drawn) [Example 77, 2-[4-[1-(2,6-dioxo-3-piperidyl)-3-methyl-2-oxo-benzimidazol-5-yl]phenyl]-N-[5-fluoro-7-hydroxy-6-(1,1,4-trioxo-1,2,5-thiadiazolidin-2-yl)-2-naphthyl]acetamide]",10 to 50,10 to 50
"Cn1c(=O)n(C2CCC(=O)NC2=O)c2ccc(N3CCC(CC(=O)Nc4ccc5c(F)c(N6CC(=O)NS6(=O)=O)c(O)cc5c4)CC3)cc21 (stereo not drawn) [Example 78, N-(6-(1,1-dioxido-4-oxo-1,2,5-thiadiazolidin-2-yl)-5-fluoro-7-hydroxynaphthalen-2-yl)-2-(1-(1-(2,6-dioxopiperidin-3-yl)-3-methyl-2-oxo-2,3-dihydro-1H-benzo[d]imidazol-5-yl)piperidin-4-yl)acetamide]",10 to 50,10 to 50
"Cn1nc(C2CCC(=O)NC2=O)c2ccc(C3CCN(C(=O)Cn4cc(-c5ccc6c(F)c(N7CC(=O)NS7(=O)=O)c(O)cc6c5)cn4)CC3)cc21 (stereo not drawn) [Example 79, 3-[6-[1-[2-[4-[5-fluoro-7-hydroxy-6-(1,1,4-trioxo-1,2,5-thiadiazolidin-2-yl)-2-naphthyl]pyrazol-1-yl]acetyl]-4-piperidyl]-1-methyl-indazol-3-yl]piperidine-2,6-dione]",10 to 50,200 to 1000
"Cn1c(=O)n(C2CCC(=O)NC2=O)c2ccc(N3CCC(O)(CC(=O)Nc4ccc5c(F)c(N6CC(=O)NS6(=O)=O)c(O)cc5c4)CC3)cc21 (stereo not drawn) [Example 82, 2-[1-[1-(2,6-dioxo-3-piperidyl)-3-methyl-2-oxo-benzimidazol-5-yl]-4-hydroxy-4-piperidyl]-N-[5-fluoro-7-hydroxy-6-(1,1,4-trioxo-1,2,5-thiadiazolidin-2-yl)-2-naphthyl]acetamide]",< 10,200 to 1000
"Cn1nc(C2CCC(=O)NC2=O)c2ccc(N3CCC(O)(CC(=O)Nc4ccc5c(F)c(N6CC(=O)NS6(=O)=O)c(O)cc5c4)CC3)cc21 (stereo not drawn) [Example 83, 2-[1-[3-(2,6-dioxo-3-piperidyl)-1-methyl-indazol-6-yl]-4-hydroxy-4-piperidyl]-N-[5-fluoro-7-hydroxy-6-(1,1,4-trioxo-1,2,5-thiadiazolidin-2-yl)-2-naphthyl]acetamide]",< 10,10 to 50
"Cn1c(=O)n(C2CCC(=O)NC2=O)c2ccc(N3CCC(OCC(=O)Nc4ccc5c(F)c(N6CC(=O)NS6(=O)=O)c(O)cc5c4)CC3)cc21 (stereo not drawn) [Example 84, 2-[[1-[1-(2,6-dioxo-3-piperidyl)-3-methyl-2-oxo-benzimidazol-5-yl]-4-piperidyl]oxy]-N-[5-fluoro-7-hydroxy-6-(1,1,4-trioxo-1,2,5-thiadiazolidin-2-yl)-2-naphthyl]acetamide]",10 to 50,50 to 200
"CC(C)n1c(=O)n(C2CCC(=O)NC2=O)c2ccc(C3CCN(CC(=O)NCCOc4ccc5cc(O)c(N6CC(=O)NS6(=O)=O)c(F)c5c4)CC3)cc21 (stereo not drawn) [Example 85, 2-[4-[1-(2,6-dioxo-3-piperidyl)-3-isopropyl-2-oxo-benzimidazol-5-yl]-1-piperidyl]-N-[2-[[8-fluoro-6-hydroxy-7-(1,1,4-trioxo-1,2,5-thiadiazolidin-2-yl)-2-naphthyl]oxy]ethyl]acetamide]",50 to 200,200 to 1000
"Cn1c(=O)n(C2CCC(=O)NC2=O)c2ccc(C3CCN(C4CC(C(=O)Nc5ccc6c(F)c(N7CC(=O)NS7(=O)=O)c(O)cc6c5)C4)CC3)cc21 (stereo not drawn) [Example 86, 3-[4-[1-(2,6-dioxo-3-piperidyl)-3-methyl-2-oxo-benzimidazol-5-yl]-1-piperidyl]-N-[5-fluoro-7-hydroxy-6-(1,1,4-trioxo-1,2,5-thiadiazolidin-2-yl)-2-naphthyl]cyclobutanecarboxamide]",10 to 50,50 to 200
"Cn1c(=O)n(C2CCC(=O)NC2=O)c2ccc(C3CCN(C(=O)C(=O)Nc4ccc5c(F)c(N6CC(=O)NS6(=O)=O)c(O)cc5c4)CC3)cc21 (stereo not drawn) [Example 87, 2-[4-[1-(2,6-dioxo-3-piperidyl)-3-methyl-2-oxo-benzimidazol-5-yl]-1-piperidyl]-N-[5-fluoro-7-hydroxy-6-(1,1,4-trioxo-1,2,5-thiadiazolidin-2-yl)-2-naphthyl]-2-oxo-acetamide]",10 to 50,10 to 50
"Cn1c(=O)n(C2CCC(=O)NC2=O)c2ccc(C3CCN(CCCn4cc(-c5ccc6cc(O)c(N7CC(=O)NS7(=O)=O)c(F)c6c5)cn4)CC3)cc21 (stereo not drawn) [Example 91, 3-[5-[1-[3-[4-[8-fluoro-6-hydroxy-7-(1,1,4-trioxo-1,2,5-thiadiazolidin-2-yl)-2-naphthyl]pyrazol-1-yl]propyl]-4-piperidyl]-3-methyl-2-oxo-benzimidazol-1-yl]piperidine-2,6-dione]",10 to 50,50 to 200

# Results, then the compound that gave them:
DC50 (PTPN2 [1]) [nM],DC50 (PTPN2 [2]) [nM],SMILES
10 to 50,50 to 200,"Cn1c(=O)n(C2CCC(=O)NC2=O)c2ccc(C3CCN(CCC(=O)N4CCC(c5ccc6cc(O)c(N7CC(=O)NS7(=O)=O)c(F)c6c5)C4)CC3)cc21 (stereo not drawn) [Example 72, 3-[5-[1-[3-[3-[8-fluoro-6-hydroxy-7-(1,1,4-trioxo-1,2,5-thiadiazolidin-2-yl)-2-naphthyl]pyrrolidin-1-yl]-3-oxo-propyl]-4-piperidyl]-3-methyl-2-oxo-benzimidazol-1-yl]piperidine-2,6-dione]"
10 to 50,10 to 50,"Cn1c(=O)n(C2CCC(=O)NC2=O)c2ccc(C3CCN(C(=O)Cn4cc(-c5ccc6c(F)c(N7CC(=O)NS7(=O)=O)c(O)cc6c5)cn4)CC3(F)F)cc21 (stereo not drawn) [Example 73, 3-[5-[3,3-difluoro-1-[2-[4-[5-fluoro-7-hydroxy-6-(1,1,4-trioxo-1,2,5-thiadiazolidin-2-yl)-2-naphthyl]pyrazol-1-yl]acetyl]-4-piperidyl]-3-methyl-2-oxo-benzimidazol-1-yl]piperidine-2,6-dione]"
< 10,50 to 200,"Cn1c(=O)n(C2CCC(=O)NC2=O)c2ccc(C3CCN(C(=O)Cn4cc(-c5ccc6c(F)c(N7CC(=O)NS7(=O)=O)c(O)cc6c5)cn4)CC3)cc21 (stereo not drawn) [Example 74, 3-[5-[1-[2-[4-[5-fluoro-7-hydroxy-6-(1,1,4-trioxo-1,2,5-thiadiazolidin-2-yl)-2-naphthyl]pyrazol-1-yl]acetyl]-4-piperidyl]-3-methyl-2-oxo-benzimidazol-1-yl]piperidine-2,6-dione]"
10 to 50,50 to 200,"Cn1c(=O)n(C2CCC(=O)NC2=O)c2ccc(C3CCN(CC(=O)N4CC(Oc5ccc6cc(O)c(N7CC(=O)NS7(=O)=O)c(F)c6c5)C4)CC3(F)F)cc21 (stereo not drawn) [Example 80, 3-[5-[3,3-difluoro-1-[2-[3-[[8-fluoro-6-hydroxy-7-(1,1,4-trioxo-1,2,5-thiadiazolidin-2-yl)-2-naphthyl]oxy]azetidin-1-yl]-2-oxo-ethyl]-4-piperidyl]-3-methyl-2-oxo-benzimidazol-1-yl]piperidine-2,6-dione]"
50 to 200,50 to 200,"Cn1c(=O)n(C2CCC(=O)NC2=O)c2ccc(C3CCN(CC(=O)N4CC=C(c5ccc6cc(O)c(N7CC(=O)NS7(=O)=O)c(F)c6c5)C4)CC3)cc21 (stereo not drawn) [Example 88, 3-[5-[1-[2-[3-[8-fluoro-6-hydroxy-7-(1,1,4-trioxo-1,2,5-thiadiazolidin-2-yl)-2-naphthyl]-2,5-dihydropyrrol-1-yl]-2-oxo-ethyl]-4-piperidyl]-3-methyl-2-oxo-benzimidazol-1-yl]piperidine-2,6-dione]"
50 to 200,50 to 200,"Cn1c(=O)n(C2CCC(=O)NC2=O)c2ccc(C3CCN(CCC(=O)N4CC=C(c5ccc6cc(O)c(N7CC(=O)NS7(=O)=O)c(F)c6c5)C4)CC3)cc21 (stereo not drawn) [Example 89, 3-[5-[1-[3-[3-[8-fluoro-6-hydroxy-7-(1,1,4-trioxo-1,2,5-thiadiazolidin-2-yl)-2-naphthyl]-2,5-dihydropyrrol-1-yl]-3-oxo-propyl]-4-piperidyl]-3-methyl-2-oxo-benzimidazol-1-yl]piperidine-2,6-dione]"
50 to 200,200 to 1000,"Cn1c(=O)n(C2CCC(=O)NC2=O)c2ccc(C3CCN(CC(=O)N4CCC(c5ccc6cc(O)c(N7CC(=O)NS7(=O)=O)c(F)c6c5)C4)CC3)cc21 (stereo not drawn) [Example 90, 3-[5-[1-[2-[3-[8-fluoro-6-hydroxy-7-(1,1,4-trioxo-1,2,5-thiadiazolidin-2-yl)-2-naphthyl]pyrrolidin-1-yl]-2-oxo-ethyl]-4-piperidyl]-3-methyl-2-oxo-benzimidazol-1-yl]piperidine-2,6-dione]"
50 to 200,200 to 1000,"Cn1c(=O)n([C@@H]2CCC(=O)NC2=O)c2ccc(C3CCN(CC(=O)NCCOc4ccc5cc(O)c(N6CC(=O)NS6(=O)=O)c(F)c5c4)CC3)cc21 [Example 92, 2-[4-[1-[(3R)-2,6-dioxo-3-piperidyl]-3-methyl-2-oxo-benzimidazol-5-yl]-1-piperidyl]-N-[2-[[8-fluoro-6-hydroxy-7-(1,1,4-trioxo-1,2,5-thiadiazolidin-2-yl)-2-naphthyl]oxy]ethyl]acetamide]"
